The results in this text go back to patent US8648198B2, “Phenylethanolamine-based NMDA receptor antagonists” (priority 2011, dated 2014).

For test [1], the target named is mixture of the GluN1b and GluN2B ATD proteins (Xenopus laevis (GluN1-4b ATD) / Rattus norvegicus (GluN2B ATD), UniProt A0A1L8F5J9+Q00960, E186G/INS190SKKRNYENLDQLSYDNKRGPK/N350Q/N61Q). The test is described as follows: Isothermal titration calorimetry (ITC), direct binding to mixed ATD proteins. Also on record: species or system Xenopus laevis GluN1-4b / Rattus Norvegicus GluN2B. In general terms: In ITC the heat of successive injections is recorded.
mixture of the GluN1b and GluN2B ATD proteins, sequence (Q00960 31-394, stated change not applied, other chains not shown): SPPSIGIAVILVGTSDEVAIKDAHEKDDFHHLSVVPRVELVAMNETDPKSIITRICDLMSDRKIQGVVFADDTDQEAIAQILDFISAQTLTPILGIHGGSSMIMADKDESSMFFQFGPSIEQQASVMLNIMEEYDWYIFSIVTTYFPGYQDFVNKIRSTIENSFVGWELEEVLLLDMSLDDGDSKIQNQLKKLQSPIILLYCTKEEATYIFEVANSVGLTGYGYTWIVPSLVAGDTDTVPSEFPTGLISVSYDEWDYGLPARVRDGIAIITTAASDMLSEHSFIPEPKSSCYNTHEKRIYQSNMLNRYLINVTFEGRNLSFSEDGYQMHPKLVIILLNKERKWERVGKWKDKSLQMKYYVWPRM

For test [2], the system named is GluN1b ATD. The test is described as follows: Isothermal titration calorimetry (ITC), GluN1b ATD alone. Format: binding, Xenopus laevis. Conditions: GluN1b ATD individually injected with ifenprodil.
Test [3] deals with GluN2B ATD. The test is described as follows: Isothermal titration calorimetry (ITC), GluN2B ATD alone. Format: binding, Rattus Norvegicus. The settings on record: GluN2B ATD individually injected with ifenprodil.
For test [4], the target named is T1, GluN1-1a (WT)/GluN2B (WT) (Rattus norvegicus, UniProt P35439+Q00960).
T1 construct: expressed in transfected cells; host or cells: Xenopus oocytes (per the earlier reading)
The test is described as follows: Ifenprodil dose-response, recordings from Xenopus oocytes. Format: cell-based. Conditions: mean ± s.d.

The target of test [5] is T2, GluN1-1b (WT)/GluN2B (WT) (Rattus norvegicus, UniProt P35439+Q00960).
T2 construct: expressed in transfected cells; host or cells: Xenopus oocytes (per the earlier reading)
The description is as above. Type of test: cell-based. Conditions: mean ± s.d.

The target in test [6] is T3, GluN1-1b (A75Q)/GluN2B (WT) (Rattus norvegicus, UniProt P35439+Q00960, A75Q).
T3 construct: expressed in transfected cells; host or cells: Xenopus oocytes (per the earlier reading)
Described as above. Type of test: cell-based. Conditions: mean ± s.d.

Test [7] has as its target T4, GluN1-1b (F113S)/GluN2B (WT) (Rattus norvegicus, UniProt P35439+Q00960, F113S).
T4 construct: expressed in transfected cells; host or cells: Xenopus oocytes (per the earlier reading)
Described as above. Conditions: mean ± s.d. Format: cell-based.

The target of test [8] is T5, GluN1-1b (L135N)/GluN2B (WT) (Rattus norvegicus, UniProt P35439+Q00960, L135N).
T5 construct: expressed in transfected cells; host or cells: Xenopus oocytes (per the earlier reading)
Described as above. Type of test: cell-based. Conditions: mean ± s.d.

For test [9], the target named is T6, GluN1-1b (WT)/GluN2B (I82S) (Rattus norvegicus, UniProt P35439+Q00960, I82S).
T6 construct: expressed in transfected cells; host or cells: Xenopus oocytes (per the earlier reading)
The test is described as above. Type of test: cell-based. Conditions: mean ± s.d.

Test [10] has as its target T7, GluN1-1b (WT)/GluN2B (Q110A) (Rattus norvegicus, UniProt P35439+Q00960, Q110A).
T7 construct: expressed in transfected cells; host or cells: Xenopus oocytes (per the earlier reading)
Described as above. Type of test: cell-based. The settings on record: mean ± s.d.

In test [11] the target is T8, GluN1-1b (WT)/GluN2B (I111M) (Rattus norvegicus, UniProt P35439+Q00960, I111M).
T8 construct: expressed in transfected cells; host or cells: Xenopus oocytes (per the earlier reading)
T8 sequence (Q00960 27-1482 I111M, other chains not shown): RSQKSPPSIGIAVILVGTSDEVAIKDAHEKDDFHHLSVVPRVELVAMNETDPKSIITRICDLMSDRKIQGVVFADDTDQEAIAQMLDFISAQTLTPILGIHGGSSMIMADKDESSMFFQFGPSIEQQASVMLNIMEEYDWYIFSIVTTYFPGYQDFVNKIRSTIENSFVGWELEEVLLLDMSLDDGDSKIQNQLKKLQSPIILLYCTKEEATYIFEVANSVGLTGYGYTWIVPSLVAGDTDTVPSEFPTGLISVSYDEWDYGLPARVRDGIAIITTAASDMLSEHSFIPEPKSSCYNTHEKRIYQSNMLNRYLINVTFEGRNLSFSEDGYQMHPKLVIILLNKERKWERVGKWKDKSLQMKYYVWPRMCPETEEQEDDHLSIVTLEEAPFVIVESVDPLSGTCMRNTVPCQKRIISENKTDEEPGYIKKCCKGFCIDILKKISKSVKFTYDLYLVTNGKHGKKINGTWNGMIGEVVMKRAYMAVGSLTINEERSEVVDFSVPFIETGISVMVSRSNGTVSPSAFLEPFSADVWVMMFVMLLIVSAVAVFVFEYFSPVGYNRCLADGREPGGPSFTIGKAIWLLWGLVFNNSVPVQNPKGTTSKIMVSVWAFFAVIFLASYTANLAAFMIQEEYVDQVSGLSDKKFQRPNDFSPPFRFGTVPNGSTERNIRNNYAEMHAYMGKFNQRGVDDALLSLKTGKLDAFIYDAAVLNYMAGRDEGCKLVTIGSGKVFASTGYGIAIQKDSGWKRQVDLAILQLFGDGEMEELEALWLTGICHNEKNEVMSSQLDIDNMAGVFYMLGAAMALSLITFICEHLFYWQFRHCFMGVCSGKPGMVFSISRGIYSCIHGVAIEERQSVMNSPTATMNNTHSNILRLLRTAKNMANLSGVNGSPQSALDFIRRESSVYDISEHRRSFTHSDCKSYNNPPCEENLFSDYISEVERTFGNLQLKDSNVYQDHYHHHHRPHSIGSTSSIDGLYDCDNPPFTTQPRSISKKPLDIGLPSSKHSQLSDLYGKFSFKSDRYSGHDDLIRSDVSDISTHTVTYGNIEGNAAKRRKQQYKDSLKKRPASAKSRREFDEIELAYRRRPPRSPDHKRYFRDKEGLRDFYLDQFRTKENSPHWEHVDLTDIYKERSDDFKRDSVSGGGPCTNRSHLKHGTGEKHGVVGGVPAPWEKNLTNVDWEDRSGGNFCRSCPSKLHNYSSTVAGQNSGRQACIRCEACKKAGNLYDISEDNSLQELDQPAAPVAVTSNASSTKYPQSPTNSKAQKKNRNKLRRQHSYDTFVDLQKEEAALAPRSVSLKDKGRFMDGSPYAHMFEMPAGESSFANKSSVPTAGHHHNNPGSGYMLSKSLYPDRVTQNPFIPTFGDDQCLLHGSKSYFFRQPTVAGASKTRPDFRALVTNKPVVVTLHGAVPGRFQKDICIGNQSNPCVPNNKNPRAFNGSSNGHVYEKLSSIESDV
Described as above. Format: cell-based. The settings on record: mean ± s.d.

The target of test [12] is T9, GluN1-1b (WT)/GluN2B (I111S) (Rattus norvegicus, UniProt P35439+Q00960, I111S).
T9 construct: expressed in transfected cells; host or cells: Xenopus oocytes (per the earlier reading)
The test is described as above. Type of test: cell-based. Conditions: mean ± s.d.

The target of test [13] is T10, GluN1/GluN2A receptors, GluN2A Met112Ile (Rattus norvegicus, UniProt P35439+Q00959, M112I).
T10 construct: expressed in transfected cells
T10 sequence (Q00959 23-1464 M112I, other chains not shown): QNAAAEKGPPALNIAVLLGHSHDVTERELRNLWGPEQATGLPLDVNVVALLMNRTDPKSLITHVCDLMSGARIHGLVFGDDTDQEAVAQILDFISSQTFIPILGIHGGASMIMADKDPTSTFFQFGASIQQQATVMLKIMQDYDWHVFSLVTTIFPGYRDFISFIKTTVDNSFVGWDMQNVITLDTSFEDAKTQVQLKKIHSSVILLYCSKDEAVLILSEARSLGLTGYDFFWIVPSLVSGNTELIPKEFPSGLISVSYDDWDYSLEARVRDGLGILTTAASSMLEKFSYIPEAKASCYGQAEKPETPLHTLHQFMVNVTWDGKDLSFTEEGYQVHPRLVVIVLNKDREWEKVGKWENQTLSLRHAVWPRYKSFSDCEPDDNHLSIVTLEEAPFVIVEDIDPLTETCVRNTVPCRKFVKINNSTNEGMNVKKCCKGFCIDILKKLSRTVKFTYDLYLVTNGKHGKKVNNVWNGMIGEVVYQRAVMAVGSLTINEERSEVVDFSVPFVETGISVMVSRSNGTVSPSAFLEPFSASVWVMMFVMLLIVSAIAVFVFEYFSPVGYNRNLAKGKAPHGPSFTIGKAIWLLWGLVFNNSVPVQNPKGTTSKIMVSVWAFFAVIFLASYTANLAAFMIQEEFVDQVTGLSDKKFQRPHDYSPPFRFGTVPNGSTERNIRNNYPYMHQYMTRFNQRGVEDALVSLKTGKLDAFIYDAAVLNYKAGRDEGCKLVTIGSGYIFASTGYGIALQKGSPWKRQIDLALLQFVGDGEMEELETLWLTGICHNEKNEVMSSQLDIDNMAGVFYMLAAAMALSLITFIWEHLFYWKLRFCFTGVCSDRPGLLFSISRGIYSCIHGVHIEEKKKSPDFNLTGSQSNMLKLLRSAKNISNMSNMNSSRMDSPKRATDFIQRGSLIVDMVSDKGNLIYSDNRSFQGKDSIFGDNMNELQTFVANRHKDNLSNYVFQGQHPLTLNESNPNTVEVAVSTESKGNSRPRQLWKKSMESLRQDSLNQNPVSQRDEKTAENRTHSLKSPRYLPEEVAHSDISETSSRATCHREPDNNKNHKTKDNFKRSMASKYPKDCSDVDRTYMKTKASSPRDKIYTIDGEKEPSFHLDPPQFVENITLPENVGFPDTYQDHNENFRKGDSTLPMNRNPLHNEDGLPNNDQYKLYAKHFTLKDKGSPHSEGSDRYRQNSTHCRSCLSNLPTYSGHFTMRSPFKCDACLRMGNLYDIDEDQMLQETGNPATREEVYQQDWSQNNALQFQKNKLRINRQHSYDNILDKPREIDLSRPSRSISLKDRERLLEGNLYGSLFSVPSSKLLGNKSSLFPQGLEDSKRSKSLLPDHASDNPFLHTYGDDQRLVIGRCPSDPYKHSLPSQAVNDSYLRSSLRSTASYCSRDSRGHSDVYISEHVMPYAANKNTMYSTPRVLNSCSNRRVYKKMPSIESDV
The test is described as follows: Ifenprodil sensitivity of mutant GluN1/GluN2A receptors. Type of test: cell-based. Conditions: GluN2A Met112Ile in GluN1/GluN2A receptors. An excerpt: Thus, the insensitivity of the GluN1/GluN2A receptors to phenylethanolamine may stem from a fundamental difference in a mode of subunit association between GluN1/GluN2A and GluN1/GluN2B at ATD.

The target of test [14] is T11, GluN1-4b (Asn70Cys)/GluN2B (Thr324Cys) (Rattus norvegicus, UniProt P35439+Q00960, N70C/T324C).
T11 construct: expressed in transfected cells
The test is described as follows: Ion channel activity of cysteine mutant receptors by TEVC (R1-R1 cross-link). Format: cell-based. From the text: (§1) To further validate the physiological relevance of the hetero-dimeric assembly, cysteine mutants at the subunit interface were engineered using the ifenprodil-bound GluN1b/GluN2B ATD structure as a guide in a context of the intact rat GluN1-4b/GluN2B receptors so that they would form spontaneous disulphide bonds if the mutated residues are proximal to each others. Toward this end, two pairs of cysteine mutants, GluN1-4b (Asn70Cys)/GluN2B (Thr324Cys) and GluN1-4b (Leu341Cys)/GluN2B (Asp210Cys) were designed, which “locked” the R1-R1 and R1-R2 interfaces, respectively FIG. 12a-b). The mutant receptors were then expressed in a mammalian cell culture, and analyzed for formation of disulphide-linked oligomers in western blots. When mutant receptors of one subunit were expressed with wild-type receptors of the other, they gave rise to monomeric bands (110 KDa and 170 KDa for GluN1-4b and GluN2B, respectively; arrow 2 and 3) identical to the wild-type GluN1-4b/GluN2B receptors in both reducing and non-reducing condition. […]
(§2) To understand the functional effects of “locking” the R1-R1 and R1-R2 interactions in the GluN1b/GluN2B ATDs, the ion channel activities of the cysteine mutant receptors were measured by TEVC. […]

In test [15] the target is T12, GluN1-4b (Leu341Cys)/GluN2B (Asp210Cys) (Rattus norvegicus, UniProt P35439+Q00960).
T12 construct: expressed in transfected cells
The test is described as follows: Ion channel activity of cysteine mutant receptors by TEVC (R1-R2 cross-link). Format: cell-based. The settings on record: R1-R2 cross-link, non-reducing, even at 3 μM ifenprodil.
Source text: as §1, §2

The target of test [16] is T13, GluN1-4b (Leu341Cys)/GluN2B (Asp210Cys) (Rattus norvegicus, UniProt P35439+Q00960, D210C/L320C).
T13 construct: expressed in transfected cells
The description is as above. The settings on record: R1-R2 cross-link broken by application of DTT. Type of test: cell-based.
Source text: as §1, §2

The structures appear in SMILES notation. Like-named read-outs stand apart in the source and are kept apart here.

T7 sequence (Q00960 27-1482 Q110A, other chains not shown): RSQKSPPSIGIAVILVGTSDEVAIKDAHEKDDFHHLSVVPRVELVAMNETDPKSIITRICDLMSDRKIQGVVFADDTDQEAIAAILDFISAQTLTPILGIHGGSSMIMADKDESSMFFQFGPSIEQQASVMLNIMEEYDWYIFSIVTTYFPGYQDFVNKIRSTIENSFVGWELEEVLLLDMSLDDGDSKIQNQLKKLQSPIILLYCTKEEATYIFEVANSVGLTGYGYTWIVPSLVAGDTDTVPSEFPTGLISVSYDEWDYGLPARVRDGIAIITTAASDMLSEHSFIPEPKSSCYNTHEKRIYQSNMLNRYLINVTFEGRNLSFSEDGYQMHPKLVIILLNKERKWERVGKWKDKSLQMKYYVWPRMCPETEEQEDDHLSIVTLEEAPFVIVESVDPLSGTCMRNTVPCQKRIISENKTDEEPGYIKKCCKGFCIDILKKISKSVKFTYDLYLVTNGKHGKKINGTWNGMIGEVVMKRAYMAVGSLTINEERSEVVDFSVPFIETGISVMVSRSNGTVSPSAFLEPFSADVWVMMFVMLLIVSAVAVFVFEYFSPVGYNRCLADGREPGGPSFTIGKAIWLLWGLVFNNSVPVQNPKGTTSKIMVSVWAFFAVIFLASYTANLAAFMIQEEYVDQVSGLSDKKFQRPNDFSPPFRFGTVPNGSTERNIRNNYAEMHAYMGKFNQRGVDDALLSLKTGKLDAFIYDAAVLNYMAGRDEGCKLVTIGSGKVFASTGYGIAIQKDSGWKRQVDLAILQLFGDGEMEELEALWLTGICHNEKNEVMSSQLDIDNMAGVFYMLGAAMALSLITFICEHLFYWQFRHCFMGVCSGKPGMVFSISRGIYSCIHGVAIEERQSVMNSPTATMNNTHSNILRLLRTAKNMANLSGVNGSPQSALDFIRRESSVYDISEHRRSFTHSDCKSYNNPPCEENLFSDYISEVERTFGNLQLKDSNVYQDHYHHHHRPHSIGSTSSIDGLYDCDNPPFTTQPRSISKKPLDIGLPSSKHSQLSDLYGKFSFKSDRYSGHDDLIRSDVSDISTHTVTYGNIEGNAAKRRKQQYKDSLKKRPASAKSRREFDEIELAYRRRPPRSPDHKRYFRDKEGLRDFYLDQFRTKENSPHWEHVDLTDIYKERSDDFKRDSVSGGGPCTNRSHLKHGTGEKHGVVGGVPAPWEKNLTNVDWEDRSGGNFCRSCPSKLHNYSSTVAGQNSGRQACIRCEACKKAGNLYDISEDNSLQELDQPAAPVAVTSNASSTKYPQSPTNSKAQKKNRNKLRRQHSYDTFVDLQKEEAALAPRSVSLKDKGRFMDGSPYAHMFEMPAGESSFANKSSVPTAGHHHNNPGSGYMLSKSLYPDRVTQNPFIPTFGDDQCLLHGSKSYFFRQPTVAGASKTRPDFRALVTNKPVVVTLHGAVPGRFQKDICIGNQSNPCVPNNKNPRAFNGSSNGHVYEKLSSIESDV

By Kd is commonly meant a measure of binding affinity in units of concentration. As for `C[C@@H](CN1CCC(Cc2ccccc2)CC1)[C@@H](O)c1ccc(O)cc1` [Ro 25-6981], the Kd in [1] (ITC, mixture of GluN1b and GluN2B ATD proteins, read-out: Kd) is 60 nM.

One may read the % inhibition as how much of the control response was suppressed. With `C[C@@H]([C@H](O)c1ccc(O)cc1)N1CCC(Cc2ccccc2)CC1` (racemic) [ifenprodil], in test [1], the Kd turned out to be 320 nM. Besides, the “binding (heat) by ITC” value in test [2] and in [3] was “no evidence of binding” throughout. The “% inhibition” value was 95.0 ± 2.5% in test [4]; 95.2 ± 2.0% in [5]; 82.1 ± 1.4% in test [6]; 87.7 ± 1.4% in test [7]; 90.0 ± 3.7% in test [8]; 55.7 ± 0.7% in [9]. The “% inhibition” value is 91.5 ± 2.2% in test [10], 93.0 ± 2.2% in test [11] and 69.3 ± 2.6% in test [12]. Also, the ifenprodil sensitivity entry in [13] was “did not confer”. Besides, in test [14], the “effect of the disulphide bond on ifenprodil sensitivity” value is recorded as “only a minor effect”. Besides, the ifenprodil inhibition result in [15] is given as “almost completely abolished”. Further, in test [16], the “ifenprodil sensitivity after breaking the disulphide cross-link” value is given as “regain sensitivity to ifenprodil”.
